From ChEMBL document CHEMBL3638657, “Substituted phenylureas and phenylamides as vanilloid receptor ligands” (2015) come the findings set out here.

Assay [1] concerns the target Transient receptor potential cation channel subfamily V member 1 (Rattus norvegicus, UniProt O35433). Description: FLIPR Assay: The agonistic or antagonistic effect of the substances to be tested on the rat-species vanilloid receptor 1 (VR1/TRPV1) can be determined using the following assay. In this assay, the influx of Ca2+ through the receptor channel is quantified with the aid of a Ca2+-sensitive dye (type Fluo-4, Molecular Probes Europe BV, Leiden, the Netherlands) in a fluorescent imaging plate reader (FLIPR, Molecular Devices, Sunnyvale, USA).Method:Complete medium: 50 ml HAMS F12 nutrient mixture (Gibco Invitrogen GmbH, Karlsruhe, Germany) with10% by volume of FCS (foetal calf serum, Gibco Invitrogen GmbH, Karlsruhe, Germany, heat-inactivated);2 mM L-glutamine (Sigma, Munich, Germany);1% by weight of AA solution (antibiotic/antimyotic solution, PAA, Pasching, Austria) and 25 ng/ml NGF medium (2.5 S, Gibco Invitrogen GmbH, Karlsruhe, Germany).

In assay [2] the target is Transient receptor potential cation channel subfamily V member 1 (Homo sapiens, UniProt Q8NER1). Briefly: FLIPR Assay: The agonistic or antagonistic effect of the substances to be tested on the vanilloid receptor 1 (VR1) can also be determined using the following assay. In this assay, the influx of Ca2+ through the channel is quantified with the aid of a Ca2+-sensitive dye (type Fluo-4, Molecular Probes Europe BV, Leiden, the Netherlands) in a fluorescent imaging plate reader (FLIPR, Molecular Devices, Sunnyvale, USA).Method:Chinese hamster ovary cells (CHO K1 cells, European Collection of Cell Cultures (ECACC) United Kingdom) are stably transfected with the VR1 gene. For functional testing, these cells are plated out on poly-D-lysine-coated black 96-well plates having a clear base (BD Biosciences, Heidelberg, Germany) at a density of 25,000 cells/well. The cells are incubated overnight at 37 C. and 5% CO2 in a culture medium (Ham's F12 nutrient mixture, 10% by volume of FCS (foetal calf serum), 18 ug/ml of L-proline). The next day the cells are incubated with Fluo-4. In kind it is cell-based.
Sequence of Transient receptor potential cation channel subfamily V member 1 (Homo sapiens, UniProt Q8NER1) (Q8NER1 whole entry): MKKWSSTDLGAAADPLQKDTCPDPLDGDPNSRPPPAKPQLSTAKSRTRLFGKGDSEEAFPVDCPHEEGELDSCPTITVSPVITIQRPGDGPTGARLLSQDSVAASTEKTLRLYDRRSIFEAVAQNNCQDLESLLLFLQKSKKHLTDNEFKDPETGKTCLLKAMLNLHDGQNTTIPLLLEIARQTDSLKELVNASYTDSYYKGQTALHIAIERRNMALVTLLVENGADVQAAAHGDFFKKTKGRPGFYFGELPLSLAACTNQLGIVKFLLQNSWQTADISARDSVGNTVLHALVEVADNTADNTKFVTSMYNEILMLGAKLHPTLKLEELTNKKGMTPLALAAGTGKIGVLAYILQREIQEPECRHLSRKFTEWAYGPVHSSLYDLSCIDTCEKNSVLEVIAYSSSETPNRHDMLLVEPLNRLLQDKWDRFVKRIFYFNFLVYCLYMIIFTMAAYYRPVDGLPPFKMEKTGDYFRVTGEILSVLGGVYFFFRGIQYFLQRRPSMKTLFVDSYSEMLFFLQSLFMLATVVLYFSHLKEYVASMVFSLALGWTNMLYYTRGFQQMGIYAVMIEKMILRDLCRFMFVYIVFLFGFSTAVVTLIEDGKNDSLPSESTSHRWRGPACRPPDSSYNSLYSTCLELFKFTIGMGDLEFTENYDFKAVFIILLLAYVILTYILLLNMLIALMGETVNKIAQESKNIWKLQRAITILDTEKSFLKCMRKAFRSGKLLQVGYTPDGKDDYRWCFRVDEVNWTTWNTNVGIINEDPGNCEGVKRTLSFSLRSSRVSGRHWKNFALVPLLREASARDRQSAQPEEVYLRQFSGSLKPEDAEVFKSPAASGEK

SMILES strings stand for the structures.

Sequence of Transient receptor potential cation channel subfamily V member 1 (Rattus norvegicus, UniProt O35433) (O35433 whole entry): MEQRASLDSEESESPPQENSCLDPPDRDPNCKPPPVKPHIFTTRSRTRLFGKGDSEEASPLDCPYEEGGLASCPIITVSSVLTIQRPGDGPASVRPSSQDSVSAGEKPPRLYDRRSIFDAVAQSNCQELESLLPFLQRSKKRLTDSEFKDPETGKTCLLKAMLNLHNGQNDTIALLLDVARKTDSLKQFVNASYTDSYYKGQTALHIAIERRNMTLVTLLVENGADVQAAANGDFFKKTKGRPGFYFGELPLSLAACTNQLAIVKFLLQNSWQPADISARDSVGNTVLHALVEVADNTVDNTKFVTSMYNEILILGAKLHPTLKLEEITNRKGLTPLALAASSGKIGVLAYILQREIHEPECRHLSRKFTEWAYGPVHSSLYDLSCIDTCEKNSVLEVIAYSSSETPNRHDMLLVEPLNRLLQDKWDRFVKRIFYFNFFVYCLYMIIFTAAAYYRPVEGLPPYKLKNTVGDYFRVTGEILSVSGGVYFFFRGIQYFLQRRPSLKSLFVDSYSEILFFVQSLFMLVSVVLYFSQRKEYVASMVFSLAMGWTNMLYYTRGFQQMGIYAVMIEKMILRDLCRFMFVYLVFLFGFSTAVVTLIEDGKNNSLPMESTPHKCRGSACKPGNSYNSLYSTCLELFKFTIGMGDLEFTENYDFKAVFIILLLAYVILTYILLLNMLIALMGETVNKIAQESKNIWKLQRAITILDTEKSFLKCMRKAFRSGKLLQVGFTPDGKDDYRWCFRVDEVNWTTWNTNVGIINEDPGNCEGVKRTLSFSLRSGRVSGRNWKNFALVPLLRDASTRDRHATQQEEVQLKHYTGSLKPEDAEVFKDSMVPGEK

As for `Cc1ccc(-n2nc(C(C)(C)C)cc2CNC(=O)C(C)c2ccc(NS(C)(=O)=O)c(F)c2)cc1` (configuration not stated), the results for the Ki in assay [1] and in assay [2] were 5.9 nM and 8 nM, respectively.
